# Biological target: HSP27 (Homo sapiens, UniProt P04792)
# Assay: Capillary electrophoresis of the CS protein precipitates (precipitated citrate synthase as measure of HSP27 inhibition)
# Format: biochemical
# Details: 10 μmol/L; 43° C. for 70 minutes; 750 μmol/L BVDU set at 1
# Method: (§1) Since the heat-denatured protein aggregates of the citrate synthase from Example 1 are not water-soluble, these can be separated completely from the supernatant by means of centrifugation at room temperature at 16,000×g, 10 min. By using capillary electrophoresis, the compositions of the separated precipitates can be shown and quantified. The relative quantity of protein of precipitated citrate synthase serves as a measure of the efficacy of the test substances.
# (§2) In each case, 481 nmol/L HSP27 and 1.44 μmol/L citrate synthase in 40 mmol/L HEPES buffer, pH 7.4, were employed. The relative quantity of protein of the precipitated citrate synthase in each case was normalized using a defined quantity of BSA as internal standard. The relative quantity of protein that precipitated when using 750 μmol/L BVDU was set at 1. The other test substances (2 representatives of phenothiazine derivatives of general formula (V), 2 representatives of purine derivatives of formula (I) or (II)) were each employed at a concentration of 10 μmol/L.
# as §1, with “Example 2” for “Example 1”
# as §2, with “nM” for “nmol/L”, “thymine” for “purine”, “were” for “were each”, “μmol/L in each case.” for “μmol/L.”
# Otherwise, the experiments were performed as described above: […]
# HSP27, sequence (P04792 whole entry): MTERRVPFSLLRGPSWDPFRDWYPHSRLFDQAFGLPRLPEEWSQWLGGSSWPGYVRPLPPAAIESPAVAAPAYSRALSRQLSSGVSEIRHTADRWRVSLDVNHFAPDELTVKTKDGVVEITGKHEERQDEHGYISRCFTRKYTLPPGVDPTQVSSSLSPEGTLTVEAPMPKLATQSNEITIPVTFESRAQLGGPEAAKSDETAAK
row,Rel. quantity of protein prec. CS,Compound
1,0.81,"Cc1cn(C2C[C@H](n3cc(-c4cccc(Br)c4)nn3)[C@@H](CO)O2)c(=O)[nH]c1=O (stereo partly drawn) [1-[(4S,5S)-4-[4-(3-Bromophenyl)-1H-1,2,3-triazol-1-yl]-5-(hydroxymethyl)oxolan-2-yl]-5-methyl-1,2,3,4-tetrahydropyrimidine-2,4-dione]"
2,0.64,"Cc1cn(C2C[C@H](n3cc(-c4ccc(Br)cc4)nn3)[C@@H](CO)O2)c(=O)[nH]c1=O (stereo partly drawn) [1-[(4S,5S)-4-[4-(4-Bromophenyl)-1,2,3-triazol-1-yl]-5-(hydroxymethyl)oxolan-2-yl]-5-methyl-3H-pyrimidine-2,4-dione]"
3,0.75,"COc1ccc(-c2cn([C@H]3CC(n4cc(C)c(=O)[nH]c4=O)O[C@@H]3CO)nn2)cc1 (stereo partly drawn) [1-[(4S,5S)-5-(Hydroxymethyl)-4-[4-(4-methoxyphenyl)-1,2,3-triazol-1-yl]oxolan-2-yl]-5-methyl-3H-pyrimidine-2,4-dione]"
4,0.76,"CCCCc1cn([C@H]2C[C@H](n3cc(C)c(=O)[nH]c3=O)O[C@@H]2CO)nn1 [3′-(4-Butyl-1H-1,2,3-triazol-1-yl)-3′-deoxythymidine]"
5,0.70,"CCCCCc1cn([C@H]2C[C@H](n3cc(C)c(=O)[nH]c3=O)O[C@@H]2CO)nn1 [3′-Deoxy-3′-(4-pentyl-1H-1,2,3-triazol-1-yl)thymidine]"
6,0.79,"Cc1cn([C@H]2C[C@H](n3cc(-c4ccccc4)nn3)[C@@H](CO)O2)c(=O)[nH]c1=O [3′-Deoxy-3′-(4-phenyl-1H-1,2,3-triazol-1-yl)thymidine]"
7,0.79,"CCCc1cn([C@H]2C[C@H](n3cc(C)c(=O)[nH]c3=O)O[C@@H]2CO)nn1 [3′-Deoxy-3′-(4-propyl-1H-1,2,3-triazol-1-yl)thymidine]"
8,0.61,"Cc1cn([C@H]2C[C@H](n3cc(C(C)(C)C)nn3)[C@@H](CO)O2)c(=O)[nH]c1=O [3′-Deoxy-3′-[4-(2-methyl-2-propanyl)-1H-1,2,3-triazol-1-yl]thymidine]"
9,0.74,"Cc1cn([C@H]2C[C@H](n3cc(CCc4ccccc4)nn3)[C@@H](CO)O2)c(=O)[nH]c1=O [3′-Deoxy-3′-[4-(2-phenylethyl)-1H-1,2,3-triazol-1-yl]-thymidine]"
10,0.84,"Cc1cn([C@H]2C[C@H](n3cc(-c4ccccn4)nn3)[C@@H](CO)O2)c(=O)[nH]c1=O [3′-Deoxy-3′-[4-(2-pyridinyl)-1H-1,2,3-triazol-1]-yl]thymidine]"
11,0.86,"Cc1cn([C@H]2C[C@H](n3cc(-c4ccc(Cl)c(Cl)c4)nn3)[C@@H](CO)O2)c(=O)[nH]c1=O [3′-Deoxy-3′-[4-(3,4-dichlorophenyl)-1H-1,2,3-triazol-1-yl]-thymidine]"
12,0.66,"Cc1cn([C@H]2C[C@H](n3cc(-c4ccc(F)cc4)nn3)[C@@H](CO)O2)c(=O)[nH]c1=O [3′-Deoxy-3′-[4-(4-fluorophenyl)-1H-1,2,3-triazol-1-yl]-thymidine]"
13,0.67,"Cc1cn([C@H]2C[C@H](n3cc(-c4ccc(Cl)cc4)nn3)[C@@H](CO)O2)c(=O)[nH]c1=O [3′-[4-(4-Chlorophenyl)-1H-1,2,3-triazol-1-yl]-3′-deoxythymidine]"
14,0.66,"Cc1cn([C@H]2C[C@H](n3cc(CC4CCCC4)nn3)[C@@H](CO)O2)c(=O)[nH]c1=O [3′-[4-(Cyclopentylmethyl)-1H-1,2,3-triazol-1-yl]-3′-deoxythymidine]"
15,0.79,"Cc1cn(CCCCNC(=O)C(c2ccccc2)c2ccccc2)c(=O)[nH]c1=O [N-[4-(5-Methyl-2,4-dioxo-3H-pyrimidin-1-yl)butyl]-2,2-diphenylacetamide]"
16,0.67,"Cc1cn(CCCCNC(=O)Cc2ccc(-c3ccccc3)cc2)c(=O)[nH]c1=O [N-[4-(5-Methyl-2,4-dioxo-3H-pyrimidin-1-yl)butyl]-2-(4-phenylphenyl)acetamide]"
17,0.75,"Cc1cn(CCCCNC(=O)Cc2ccc3ccccc3c2)c(=O)[nH]c1=O [N-[4-(5-Methyl-2,4-dioxo-3H-pyrimidin-1-yl)butyl]-2-(naphthalen-2-yl)acetamide]"
18,0.58,"Cc1cn(CCCCNC(=O)C2c3ccccc3-c3ccccc32)c(=O)[nH]c1=O [N-[4-(5-Methyl-2,4-dioxo-3H-pyrimidin-1-yl)butyl]-9H-fluorene-9-carboxamide]"
19,0.68,"Cc1cn(CCCCNC(=O)C2c3ccccc3Oc3ccccc32)c(=O)[nH]c1=O [N-[4-(5-Methyl-2,4-dioxo-3H-pyrimidin-1-yl)butyl]-9H-xanthene-9-carboxamide]"
20,0.88,"O=C(Cc1ccc(-c2ccccc2)cc1)NC/C=C\Cn1ccc(=O)[nH]c1=O [N-[(2Z)-4-(2,4-Dioxo-3H-pyrimidin-1-yl)but-2-en-1-yl]-2-(4-phenylphenyl)acetamide]"
21,0.85,"O=C(NC/C=C\Cn1ccc(=O)[nH]c1=O)C1c2ccccc2OC2C=CC=CC21 (centres unmarked) [N-[(2Z)-4-(2,4-Dioxo-3H-pyrimidin-1-yl)but-2-en-1-yl]-9,9a-dihydro-4aH-xanthene-9-carboxamide]"
22,0.82,"Cc1cn(C/C=C\CNC(=O)C(c2ccccc2)c2ccccc2)c(=O)[nH]c1=O [N-[(2Z)-4-(5-Methyl-2,4-dioxo-3H-pyrimidin-1-yl)but-2-en-1-yl]-2,2-diphenylacetamide]"
23,0.81,"Cc1cn(C/C=C\CNC(=O)Cc2cccc3ccccc23)c(=O)[nH]c1=O [N-[(2Z)-4-(5-Methyl-2,4-dioxo-3H-pyrimidin-1-yl)but-2-en-1-yl]-2-(naphthalen-1-yl)acetamide]"
24,0.83,"Cc1cn(C/C=C\CNC(=O)Cc2ccc3ccccc3c2)c(=O)[nH]c1=O [N-[(2Z)-4-(5-Methyl-2,4-dioxo-3H-pyrimidin-1-yl)but-2-en-1-yl]-2-(naphthalen-2-yl)acetamide]"
25,0.86,"Cc1cn(C/C=C\CNC(=O)C2c3ccccc3-c3ccccc32)c(=O)[nH]c1=O [N-[(2Z)-4-(5-Methyl-2,4-dioxo-3H-pyrimidin-1-yl)but-2-en-1-yl]-9H-fluorene-9-carboxamide]"
26,0.78,"Cc1cn(C/C=C\CNC(=O)c2cccc3ccccc23)c(=O)[nH]c1=O [N-[(2Z)-4-(5-Methyl-2,4-dioxo-3H-pyrimidin-1-yl)but-2-en-1-yl]naphthalene-1-carboxamide]"
